Results from PubChem BioAssay (NCI).
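Cultured in 96-well plates, cells were exposed to test compound for 48 hours across five concentrations. The concentration for full growth arrest is given as TGI.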

Experiments:
Assay in all cases: NCI tumour cell line growth inhibition, 48 h
DMS 273 small cell lung = system: DMS 273 small cell lung
OVCAR-8 ovarian = system: OVCAR-8 ovarian
SF-268 CNS = system: SF-268 CNS
HOP-92 NSCLC = system: HOP-92 NSCLC
786-0 renal = system: 786-0 renal
XF 498 CNS = system: XF 498 CNS
NCI-H226 lung = system: NCI-H226 lung
UACC-257 melanoma = system: UACC-257 melanoma
DMS 114 small cell lung = system: DMS 114 small cell lung
SNB-75 CNS = system: SNB-75 CNS
SN12C renal = system: SN12C renal
SK-OV-3 ovarian = system: SK-OV-3 ovarian
OVCAR-3 ovarian = system: OVCAR-3 ovarian
MALME-3M melanoma = system: MALME-3M melanoma
SNB-78 CNS = system: SNB-78 CNS
NCI-H23 lung = system: NCI-H23 lung
IGROV1 ovarian = system: IGROV1 ovarian
HOP-18 NSCLC = system: HOP-18 NSCLC
COLO 205 colon = system: COLO 205 colon
U251 CNS = system: U251 CNS
A549 NSCLC = system: A549 NSCLC
HL-60(TB) leukemia = system: HL-60(TB) leukemia
MOLT-4 leukemia = system: MOLT-4 leukemia
K-562 leukemia = system: K-562 leukemia
SF-295 CNS = system: SF-295 CNS
OVCAR-4 ovarian = system: OVCAR-4 ovarian
UO-31 renal = system: UO-31 renal
RPMI-8226 leukemia = system: RPMI-8226 leukemia
HT29 colon = system: HT29 colon
EKVX NSCLC = system: EKVX NSCLC
SNB-19 CNS = system: SNB-19 CNS
ACHN renal = system: ACHN renal
M14 melanoma = system: M14 melanoma
SK-MEL-28 melanoma = system: SK-MEL-28 melanoma
CCRF-CEM leukemia = system: CCRF-CEM leukemia
LXFL 529 NSCLC = system: LXFL 529 NSCLC
HCT-116 colon = system: HCT-116 colon
M19-MEL melanoma = system: M19-MEL melanoma
SK-MEL-5 melanoma = system: SK-MEL-5 melanoma
HCT-15 colon = system: HCT-15 colon
SW-620 colon = system: SW-620 colon
SK-MEL-2 melanoma = system: SK-MEL-2 melanoma
SR leukemia = system: SR leukemia
KM20L2 colon = system: KM20L2 colon
TK-10 renal = system: TK-10 renal
NCI-H460 lung = system: NCI-H460 lung
LOX IMVI melanoma = system: LOX IMVI melanoma
NCI-H522 lung = system: NCI-H522 lung
CAKI-1 renal = system: CAKI-1 renal
HOP-62 NSCLC = system: HOP-62 NSCLC
UACC-62 melanoma = system: UACC-62 melanoma
HCC-2998 colon = system: HCC-2998 colon
RXF 393 renal = system: RXF 393 renal
RXF-631 renal = system: RXF-631 renal
SF-539 CNS = system: SF-539 CNS
DLD-1 colon = system: DLD-1 colon
OVCAR-5 ovarian = system: OVCAR-5 ovarian
KM12 colon = system: KM12 colon
A498 renal = system: A498 renal

`O=S(Cc1ccccn1)c1nc2ccccc2nc1-c1ccccc1` (configuration not stated) was tested, and the TGI (DMS 273 small cell lung) was > 100 µM, the TGI (OVCAR-8 ovarian) was > 100 µM and the TGI (SF-268 CNS) was > 100 µM. For the same molecule, the TGI (HOP-92 NSCLC) was 83.3 µM, the TGI (786-0 renal) was > 100 µM and the TGI (XF 498 CNS) was 47.3 µM. For the same molecule, the TGI (NCI-H226 lung) was 76.2 µM, the TGI (UACC-257 melanoma) was 82 µM and the TGI (DMS 114 small cell lung) was 69.6 µM. For the same molecule, the TGI (SNB-75 CNS) was 79.6 µM, the TGI (SN12C renal) was > 100 µM and the TGI (SK-OV-3 ovarian) was > 100 µM. The TGI (OVCAR-3 ovarian) was > 100 µM, the TGI (MALME-3M melanoma) was 97.7 µM and the TGI (SNB-78 CNS) was 94 µM. For the same molecule, the TGI (NCI-H23 lung) was > 100 µM, the TGI (IGROV1 ovarian) was 73.3 µM and the TGI (HOP-18 NSCLC) was > 100 µM. The TGI (COLO 205 colon) was 32.8 µM, the TGI (U251 CNS) was > 100 µM and the TGI (A549 NSCLC) was > 100 µM. For the same molecule, the TGI (HL-60(TB) leukemia) was 80.7 µM, the TGI (MOLT-4 leukemia) was > 100 µM and the TGI (K-562 leukemia) was > 100 µM. The TGI (SF-295 CNS) was > 100 µM, the TGI (OVCAR-4 ovarian) was > 100 µM and the TGI (UO-31 renal) was 90.4 µM. The TGI (RPMI-8226 leukemia) was 91.3 µM, the TGI (HT29 colon) was > 100 µM and the TGI (EKVX NSCLC) was 73.7 µM. The TGI (SNB-19 CNS) was > 100 µM, the TGI (ACHN renal) was > 100 µM and the TGI (M14 melanoma) was > 100 µM. For the same molecule, the TGI (SK-MEL-28 melanoma) was > 100 µM, the TGI (CCRF-CEM leukemia) was > 100 µM and the TGI (LXFL 529 NSCLC) was > 100 µM. The TGI (HCT-116 colon) was > 100 µM.

In the case of `CC(=O)OC1(C#N)CC2OC1C1C2N=NN1C(=O)OC(C)(C)C` (configuration not stated), the TGI (DMS 273 small cell lung) was 73.8 µM, the TGI (OVCAR-8 ovarian) was > 100 µM and the TGI (SF-268 CNS) was > 100 µM. For the same molecule, the TGI (HOP-92 NSCLC) was 75.3 µM, the TGI (M19-MEL melanoma) was > 100 µM and the TGI (SK-MEL-5 melanoma) was > 100 µM. For the same molecule, the TGI (HCT-15 colon) was 55.9 µM, the TGI (SW-620 colon) was > 100 µM and the TGI (UACC-257 melanoma) was > 100 µM. For the same molecule, the TGI (DMS 114 small cell lung) was 65.6 µM, the TGI (SNB-75 CNS) was > 100 µM and the TGI (SN12C renal) was > 100 µM. The TGI (SK-MEL-2 melanoma) was 68.9 µM, the TGI (SR leukemia) was > 100 µM and the TGI (KM20L2 colon) was > 100 µM. For the same molecule, the TGI (TK-10 renal) was > 100 µM, the TGI (OVCAR-3 ovarian) was > 100 µM and the TGI (MALME-3M melanoma) was 48.3 µM. For the same molecule, the TGI (SNB-78 CNS) was 73.2 µM, the TGI (NCI-H23 lung) was 77.7 µM and the TGI (NCI-H460 lung) was > 100 µM. For the same molecule, the TGI (LOX IMVI melanoma) was 69.4 µM, the TGI (NCI-H522 lung) was > 100000 nM and the TGI (CAKI-1 renal) was > 100 µM. For the same molecule, the TGI (IGROV1 ovarian) was > 100 µM, the TGI (HOP-18 NSCLC) was > 100 µM and the TGI (HOP-62 NSCLC) was > 100 µM. For the same molecule, the TGI (COLO 205 colon) was > 100 µM, the TGI (A549 NSCLC) was > 100 µM and the TGI (MOLT-4 leukemia) was > 100 µM. The TGI (UACC-62 melanoma) was 45.9 µM, the TGI (HCC-2998 colon) was > 100 µM and the TGI (K-562 leukemia) was > 100 µM. For the same molecule, the TGI (RXF 393 renal) was > 100 µM, the TGI (OVCAR-4 ovarian) was > 100 µM and the TGI (UO-31 renal) was > 100 µM. The TGI (RPMI-8226 leukemia) was > 100 µM, the TGI (HT29 colon) was > 100 µM and the TGI (EKVX NSCLC) was > 100 µM. The TGI (RXF-631 renal) was > 100 µM, the TGI (ACHN renal) was > 100 µM and the TGI (SF-539 CNS) was 52.7 µM. For the same molecule, the TGI (DLD-1 colon) was > 100 µM, the TGI (M14 melanoma) was 46.6 µM and the TGI (SK-MEL-28 melanoma) was 81.9 µM. For the same molecule, the TGI (CCRF-CEM leukemia) was > 100 µM, the TGI (LXFL 529 NSCLC) was > 100 µM and the TGI (OVCAR-5 ovarian) was > 100 µM. The TGI (HCT-116 colon) was 28.6 µM.

For `CC#C[P+](c1ccccc1)(c1ccccc1)c1ccccc1`, the TGI (DMS 273 small cell lung) was 10.6 µM, the TGI (OVCAR-8 ovarian) was 12 µM and the TGI (SF-268 CNS) was 8.44 µM. It also gave a TGI (HOP-92 NSCLC) of 5.42 µM, a TGI (M19-MEL melanoma) of 11.8 µM and a TGI (SK-MEL-5 melanoma) of 11.9 µM. The TGI (786-0 renal) was 10.7 µM, the TGI (XF 498 CNS) was 7.26 µM and the TGI (HCT-15 colon) was 35.8 µM. For the same molecule, the TGI (NCI-H226 lung) was 14.2 µM, the TGI (UACC-257 melanoma) was 9.59 µM and the TGI (DMS 114 small cell lung) was 9.95 µM. The TGI (SNB-75 CNS) was 12 µM, the TGI (SN12C renal) was 4.13 µM and the TGI (SK-MEL-2 melanoma) was 5.75 µM. The TGI (SR leukemia) was 14.3 µM, the TGI (KM20L2 colon) was 21.3 µM and the TGI (SK-OV-3 ovarian) was 38.5 µM. For the same molecule, the TGI (TK-10 renal) was 15.7 µM, the TGI (OVCAR-3 ovarian) was 14.3 µM and the TGI (MALME-3M melanoma) was 22.4 µM. It also gave a TGI (SNB-78 CNS) of 22.9 µM, a TGI (NCI-H23 lung) of 7.03 µM and a TGI (NCI-H460 lung) of 19.2 µM. The TGI (LOX IMVI melanoma) was 6.75 µM, the TGI (NCI-H522 lung) was 924 nM and the TGI (KM12 colon) was 11.3 µM. The TGI (CAKI-1 renal) was 11.3 µM, the TGI (IGROV1 ovarian) was 26.1 µM and the TGI (HOP-18 NSCLC) was 25.4 µM. For the same molecule, the TGI (HOP-62 NSCLC) was 17.4 µM, the TGI (COLO 205 colon) was 2.77 µM and the TGI (U251 CNS) was 11.8 µM. For the same molecule, the TGI (A549 NSCLC) was > 100 µM, the TGI (HL-60(TB) leukemia) was 13.9 µM and the TGI (MOLT-4 leukemia) was 5.31 µM. It also gave a TGI (UACC-62 melanoma) of 14.8 µM, a TGI (HCC-2998 colon) of 14.5 µM and a TGI (K-562 leukemia) of 11.8 µM. For the same molecule, the TGI (RXF 393 renal) was 18.9 µM, the TGI (SF-295 CNS) was 9.15 µM and the TGI (A498 renal) was > 100 µM. It also gave a TGI (OVCAR-4 ovarian) of 20.1 µM, a TGI (UO-31 renal) of 76.4 µM and a TGI (HT29 colon) of 12.9 µM. It also gave a TGI (EKVX NSCLC) of 22.5 µM, a TGI (SNB-19 CNS) of 15 µM and a TGI (ACHN renal) of 21.8 µM. For the same molecule, the TGI (SF-539 CNS) was 10.1 µM, the TGI (DLD-1 colon) was 16.7 µM and the TGI (M14 melanoma) was 5.78 µM. The TGI (SK-MEL-28 melanoma) was 25 µM, the TGI (CCRF-CEM leukemia) was 3.57 µM and the TGI (LXFL 529 NSCLC) was 12.6 µM. The TGI (OVCAR-5 ovarian) was 22 µM and the TGI (HCT-116 colon) was 13.3 µM.
